Data from PMC6522510 (Nature Communications, 2019).
pEC50: −log10 of the molar value. Where two headings read alike, the source gives them in different places.

Experiments:
CHRF288-11 [1] = test: Secondary dose-response HTS, Cell Titer Glo; assay type: cell-based, human; conditions: Homo sapiens, HTS; secondary high-throughput screen; CHRF288-11; read-out: average effective concentration, CHRF288-11
CMK [2] = test: Secondary dose-response HTS, Cell Titer Glo; assay type: cell-based, human; conditions: Homo sapiens, CMK, read-out: average effective concentration, CMK
CMS [3] = test: Secondary dose-response HTS, Cell Titer Glo; assay type: cell-based, human; conditions: Homo sapiens, HTS, read-out: average effective concentration, CMS
M07e [4] = test: Secondary dose-response HTS, Cell Titer Glo; assay type: cell-based, human; conditions: Homo sapiens, M-07e, secondary high-throughput screen, read-out: average effective concentration, M07e
ML2 = test: Secondary dose-response HTS, Cell Titer Glo; assay type: cell-based, human; conditions: Homo sapiens; secondary high-throughput screen; ML-2; read-out: average effective concentration, ML-2
U937 [5] = test: Secondary dose-response HTS, Cell Titer Glo; assay type: cell-based, human; conditions: Homo sapiens, U-937; secondary high-throughput screen; U937; read-out: average effective concentration, U937
MOLM-13 [6] = test: cells; set-up: species or system AML cell lines (8); Secondary HTS, 10-point dose-response in triplicate, Cell Titer Glo viability, four-parameter fit EC50; conditions: Homo sapiens, MOLM-13, 72 h, read-out: MOLM-13
MV4-11 [7] = test: cells; set-up: species or system AML cell lines (8); Secondary HTS, 10-point dose-response in triplicate, Cell Titer Glo viability, four-parameter fit EC50; conditions: Homo sapiens, MV4-11, 72 h, read-out: MV4-11
CMK [8] = test: cells; set-up: species or system AML cell lines (8); Secondary HTS, 10-point dose-response in triplicate, Cell Titer Glo viability, four-parameter fit EC50; conditions: Homo sapiens, CMK, 72 h, read-out: CMK
CHRF288-11 [9] = test: cells; set-up: species or system AML cell lines (8); Secondary HTS, 10-point dose-response in triplicate, Cell Titer Glo viability, four-parameter fit EC50; conditions: 72 h, read-out: CHRF288-11
U937 [10] = test: cells; set-up: species or system AML cell lines (8); Secondary HTS, 10-point dose-response in triplicate, Cell Titer Glo viability, four-parameter fit EC50; conditions: Homo sapiens, U-937, 72 h, read-out: U937
CHRF288-11 [11] = tested on: CHRF288-11; set-up: species or system AML cell lines (8); Primary HTS, single concentration about 10 uM, Cell Titer Glo viability; log10 luminescence, per cent inhibition relative to cycloheximide control; conditions: 72 h, relative to cycloheximide control, log10 luminescence; inhibitor
CMK [12] = tested on: CMK; set-up: species or system AML cell lines (8); Primary HTS, single concentration about 10 uM, Cell Titer Glo viability; log10 luminescence, per cent inhibition relative to cycloheximide control; conditions: 72 h, relative to cycloheximide control, log10 luminescence; inhibitor
CMS [13] = tested on: CMS; set-up: species or system AML cell lines (8); Primary HTS, single concentration about 10 uM, Cell Titer Glo viability; log10 luminescence, per cent inhibition relative to cycloheximide control; conditions: 72 h, relative to cycloheximide control, log10 luminescence; inhibitor
M07e [14] = tested on: M07e; set-up: species or system AML cell lines (8); Primary HTS, single concentration about 10 uM, Cell Titer Glo viability; log10 luminescence, per cent inhibition relative to cycloheximide control; conditions: 72 h, relative to cycloheximide control, log10 luminescence; inhibitor
ML-2 = tested on: ML-2; set-up: species or system AML cell lines (8); Primary HTS, single concentration about 10 uM, Cell Titer Glo viability; log10 luminescence, per cent inhibition relative to cycloheximide control; conditions: 72 h, relative to cycloheximide control, log10 luminescence; inhibitor
MOLM-13 [15] = tested on: MOLM-13; set-up: species or system AML cell lines (8); Primary HTS, single concentration about 10 uM, Cell Titer Glo viability; log10 luminescence, per cent inhibition relative to cycloheximide control; conditions: 72 h, relative to cycloheximide control, log10 luminescence; inhibitor
MV4-11 [16] = tested on: MV4-11; set-up: species or system AML cell lines (8); Primary HTS, single concentration about 10 uM, Cell Titer Glo viability; log10 luminescence, per cent inhibition relative to cycloheximide control; conditions: 72 h, relative to cycloheximide control, log10 luminescence; inhibitor
U937 [17] = tested on: U937; set-up: species or system AML cell lines (8); Primary HTS, single concentration about 10 uM, Cell Titer Glo viability; log10 luminescence, per cent inhibition relative to cycloheximide control; conditions: 72 h, relative to cycloheximide control, log10 luminescence; inhibitor
MOLM-13 [18] = test: Secondary dose-response HTS, Cell Titer Glo; assay type: cell-based, human; conditions: Homo sapiens; secondary high-throughput screen; MOLM-13; read-out: average effective concentration, MOLM-13
MV4-11 [19] = test: Secondary dose-response HTS, Cell Titer Glo; assay type: cell-based, human; conditions: Homo sapiens; secondary high-throughput screen; MV4-11; read-out: average effective concentration, MV4-11
[20] = secondary high-throughput screen
[21] = secondary high-throughput screen, CMS

Row | Structure (SMILES) | pEC50 (CHRF288-11 [1]) | pEC50 (CMK [2]; [20]) | pEC50 (CMS [3]; [21]) | pEC50 (M07e [4]; M07e) | pEC50 (ML2) | pEC50 (U937 [5]) | pEC50 (MOLM-13 [6]) | pEC50 (MV4-11 [7]) | pEC50 (CMS [3]) | further results
1 | CN(C)Cc1c(C(=O)NCCOc2ccc(C(=O)NO)cc2)oc2ccccc12 [ABEXINOSTAT] | 7.43 | 7.92 | 7.47 | 7.59 | 7.03 | 7.52 | < 5.00 | < 5.00 |  | 
2 | C=C1CC[C@@H]2[C@](C)(CO)[C@H](O)CC[C@@]2(C)[C@@H]1C/C=C1/C(=O)OC[C@H]1O [ANDROGRAPHOLIDE] | 5.07 |  |  | 5.00 | 5.42 | 5.77 | < 5.00 | < 5.00 | 5.24 | pEC50 (CMK [8]): < 5.00
3 | O=C(Nc1c[nH]nc1-c1nc2ccc(CN3CCOCC3)cc2[nH]1)NC1CC1 [AT9283] |  | 6.72 | 6.72 | 7.05 | 5.18 | 5.21 | < 5.00 | < 5.00 |  | pEC50 (CHRF288-11 [9]): < 5.00
4 | COC(=O)[C@]12CCC(C)(C)C[C@H]1[C@H]1C(=O)C=C3[C@@]4(C)C=C(C#N)C(=O)C(C)(C)[C@@H]4CC[C@@]3(C)[C@]1(C)CC2 [BARDOXOLONE METHYL] | 6.03 | 5.96 | 5.96 | 5.40 | 6.06 | 6.00 | < 5.00 | < 5.00 |  | 
5 | Cc1ccc2nc(NCCN)c3ncc(C)n3c2c1 [BMS-345541] | 5.42 | 5.33 | 5.23 |  | 5.66 | 5.64 | < 5.00 | < 5.00 |  | pEC50 (M07e [4]; […]): 5.21
6 | Nc1cc(F)ccc1NC(=O)c1ccc(CNC(=O)/C=C/c2cccnc2)cc1 [CHIDAMIDE] |  |  |  | 5.82 | 5.06 |  | < 5.00 | < 5.00 | 5.00 | pEC50 (CMK [2]): 6.60; pEC50 (CHRF288-11 [9]): < 5.00; pEC50 (U937 [10]): < 5.00
7 | O=C(/C=C/c1ccc(CN(CCO)CCc2c[nH]c3ccccc23)cc1)NO [DACINOSTAT] | 9.00 | 9.00 | 9.00 | 9.00 | 9.00 | 9.00 | < 5.00 | < 5.00 |  | CHRF288-11 %inh (CHRF288-11 [11]): 161.9%; CMK %inh (CMK [12]): 120.3%; CMS %inh (CMS [13]): 111%; M07e %inh (M07e [14]): 149.6%; ML-2 %inh (ML-2): 65.79%; MOLM-13 %inh (MOLM-13 [15]): 102.9%; MV4-11 %inh (MV4-11 [16]): 78.77%; U937 %inh (U937 [17]): 87.23%
8 | CC(C)C[C@H](NC(=O)[C@@H](NC(=O)c1cccc(-c2ccccc2)n1)[C@@H](C)O)B(O)O [DELANZOMIB] | 8.57 | 8.82 | 9.00 | 9.00 | 9.00 | 8.55 | 8.68 | < 5.00 |  | 
9 | COc1cccc2c1C(=O)c1c(O)c3c(c(O)c1C2=O)C[C@@](O)(C(=O)CO)C[C@@H]3O[C@H]1C[C@H](N)[C@H](O)[C@H](C)O1 [DOXORUBICIN] | 6.89 |  | 6.13 | 6.64 | 6.36 | 6.85 |  |  |  | pEC50 (MOLM-13 [18]): 7.44; pEC50 (MV4-11 [19]): 7.29; pEC50 (CHRF288-11 [9]): 6.87; pEC50 (CMK [8]): < 5.00
10 | Nc1ccccc1NC(=O)c1ccc(CNC(=O)OCc2cccnc2)cc1 [ENTINOSTAT] | 5.39 | 6.96 | 6.12 | 6.00 | 5.21 | 5.25 | < 5.00 | < 5.00 |  | 
11 | COc1cc([C@@H]2c3cc4c(cc3[C@@H](O[C@@H]3O[C@@H]5CO[C@@H](C)O[C@H]5[C@H](O)[C@H]3O)[C@H]3COC(=O)[C@H]23)OCO4)cc(OC)c1O [ETOPOSIDE] | 5.44 |  | < 5.00 | 5.77 | 6.15 | 5.37 |  |  |  | pEC50 (MOLM-13 [18]): 5.68; pEC50 (MV4-11 [19]): 6.17; pEC50 (CMK [8]): < 5.00
12 | Cc1cc(Nc2cc(CN3CCOCC3)c3nc(C)c(Cc4ccc(Cl)cc4F)n3n2)n[nH]1 [GANDOTINIB] | 7.16 |  |  | 5.52 | 5.03 | 6.03 | < 5.00 | < 5.00 | 6.44 | pEC50 (CMK [8]): < 5.00
13 | CCN(CC)Cc1ccc2cc(COC(=O)Nc3ccc(C(=O)NO)cc3)ccc2c1 [GIVINOSTAT] | 7.21 | 8.43 | 7.07 | 7.51 | 7.15 | 7.26 | < 5.00 | < 5.00 |  | 
14 | Oc1ccc(C2=Cc3ccc(O)cc3OC2)cc1 [IDRONOXIL] | 6.74 | 7.06 | 6.36 |  | 6.89 | 5.72 | < 5.00 | < 5.00 |  | pEC50 (M07e [4]; […]): 5.89
15 | NS(=O)(=O)OC[C@@H]1C[C@@H](n2ccc3c(N[C@H]4CCc5ccccc54)ncnc32)C[C@@H]1O [MLN 4924] | 7.74 |  |  | 6.85 | 9.00 | 9.00 | < 5.00 | < 5.00 | 7.00 | pEC50 (CMK [2]): 9.00
16 | Nc1ccccc1NC(=O)c1ccc(CNc2nccc(-c3cccnc3)n2)cc1 [MOCETINOSTAT] | 6.77 | 7.41 | 6.92 | 6.85 | 6.39 | 5.96 | < 5.00 | < 5.00 |  | 
17 | C=C1C(=O)O[C@H]2[C@H]1CC/C(C)=C/CC[C@@]1(C)O[C@@H]21 [PARTHENOLIDE] | 5.80 |  |  | 5.00 | 6.04 | 5.68 | < 5.00 | < 5.00 | 5.92 | pEC50 (CMK [2]): 5.68
18 | CCCCc1nc2cc(/C=C/C(=O)NO)ccc2n1CCN(CC)CC [PRACINOSTAT] | 6.60 |  |  | 6.89 | 6.48 | 6.66 | < 5.00 | < 5.00 | 6.85 | pEC50 (CMK [2]): 7.15
19 | CN1CCC(CNc2ccc3ncc(-c4cccc(OC(F)(F)F)c4)n3n2)CC1 [SGI-1776] | < 5.00 |  |  | < 5.00 | < 5.00 | 5.00 |  |  | < 5.00 | pEC50 (MOLM-13 [18]): 5.80; pEC50 (MV4-11 [19]): 6.00; pEC50 (CMK [8]): < 5.00
20 | O=C1NC(=O)[C@@H](c2cn3c4c(cccc24)CCC3)[C@@H]1c1c[nH]c2ccccc12 [TIVANTINIB] | 5.44 | 7.12 | 5.82 | 6.11 | 7.26 | 7.21 | < 5.00 | < 5.00 |  | 
